SMILES strings stand for the structures.

The target in the first experiment is T1, HCV polymerase (Hepatitis C virus genotype 1b, UniProt P26663).
T1 construct: 2.5 pmoles (0.15 μg) HCV polymerase protein in a final volume of 75 μL
T1 sequence (P26663 2420-3010): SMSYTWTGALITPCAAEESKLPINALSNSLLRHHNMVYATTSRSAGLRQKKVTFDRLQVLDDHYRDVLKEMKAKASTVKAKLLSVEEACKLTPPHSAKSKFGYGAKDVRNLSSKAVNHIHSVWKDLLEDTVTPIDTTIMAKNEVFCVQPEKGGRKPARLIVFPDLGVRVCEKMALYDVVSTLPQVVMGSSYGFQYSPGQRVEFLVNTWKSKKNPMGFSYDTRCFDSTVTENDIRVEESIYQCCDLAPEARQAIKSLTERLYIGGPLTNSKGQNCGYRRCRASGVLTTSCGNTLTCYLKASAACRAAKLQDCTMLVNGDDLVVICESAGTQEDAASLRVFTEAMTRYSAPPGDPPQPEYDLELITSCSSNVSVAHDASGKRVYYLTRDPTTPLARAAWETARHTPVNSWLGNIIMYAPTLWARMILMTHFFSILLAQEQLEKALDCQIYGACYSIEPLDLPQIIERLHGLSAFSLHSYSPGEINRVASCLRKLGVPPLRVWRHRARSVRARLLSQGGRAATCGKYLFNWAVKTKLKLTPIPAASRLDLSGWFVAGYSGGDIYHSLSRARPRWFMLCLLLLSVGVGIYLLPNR
Kind of experiment: HCV polymerase primer/template-directed transcription assay (32P-GTP incorporation, filter binding). In kind it is biochemical. To be noted: @ 20 uM compound; given where IC50 was impractical to calculate; read-out: percent inhibition. The gist of the method:
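IC50s come from triplicate cpm, refit with an enzyme-concentration (30 nM) correction when under 200 nM. Reactions ran 30 min at 30° C in Tris pH 7.2 with MgCl2, 1 μM GTP spiked with α-32P-GTP, biotin-dG12 primer and poly(rC)300 template, with 1% DMSO. Incorporated label was collected on DE filtermats and counted.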
What is called inhibition is the percentage by which the read-out fell short of the control. As to `CCC1(CCc2ccc(OC)cc2)CC(O)=C(Sc2nc3cc(Cl)ccc3n2C(C)C)C(=O)O1` (centres unmarked) [C(15), 3-(5-Chloro-1-isopropyl-1H-benzoimidazol-2-ylsulfanyl)-6-ethyl-4-hydroxy-6-[2-(4-methoxy-phenyl)-ethyl]-5,6-dihydro-pyran-2-one], the inhibition at 20 µM is 22%.

As to `CCC1(CCc2ccc(OC)cc2)CC(O)=C(Sc2nc3nc(C)cc(C)n3n2)C(=O)O1` (centres unmarked) [C(16), 3-(5,7-Dimethyl-[1,2,4]triazolo[1,5-a]pyrimidin-2-ylsulfanyl)-6-ethyl-4-hydroxy-6-[2-(4-methoxy-phenyl)-ethyl]-5,6-dihydro-pyran-2-one], the inhibition at 20 µM was 8%.

The experiment is the same for the next values; noted with them: @ 50 uM compound; given where IC50 was impractical to calculate; read-out: percent inhibition.
With `Cc1cc(C)n2nc(SC3=C(O)CC(C)(C4CCCC4)OC3=O)nc2n1` (centres unmarked) [C(17), 6-Cyclopentyl-3-(5,7-dimethyl-[1,2,4]triazolo[1,5-a]pyrimidin-2-ylsulfanyl)-4-hydroxy-6-methyl-5,6-dihydro-pyran-2-one], the inhibition at 50 µM is 2%. Still for that read-out and setting: the value for `CCC1(CC)CC(O)=C(Sc2nc3nc(C)cc(C)n3n2)C(=O)O1` [C(18), 3-(5,7-Dimethyl-[1,2,4]triazolo[1,5-a]pyrimidin-2-ylsulfanyl)-6,6-diethyl-4-hydroxy-5,6-dihydro-pyran-2-one] was 2%. With `CCC1(CC)CC(O)=C(Sc2nc3cc(Cl)ccc3n2C(C)C)C(=O)O1` [C(19), 3-(5-Chloro-1-isopropyl-1H-benzoimidazol-2-ylsulfanyl)-6,6-diethyl-4-hydroxy-5,6-dihydro-pyran-2-one], the inhibition at 50 µM was 22%. As for `CCC1(C)CC(O)=C(Sc2nc3cc(Cl)ccc3n2C(C)C)C(=O)O1` (centres unmarked) [C(20), 3-(5-Chloro-1-isopropyl-1H-benzoimidazol-2-ylsulfanyl)-6-ethyl-4-hydroxy-6-methyl-5,6-dihydro-pyran-2-one], the inhibition at 50 µM was 11%. For `CCC1(C)CC(O)=C(Sc2nc3nc(C)cc(C)n3n2)C(=O)O1` (centres unmarked) [C(21), 3-(5,7-Dimethyl-[1,2,4]triazolo[1,5-a]pyrimidin-2-ylsulfanyl)-6-ethyl-4-hydroxy-6-methyl-5,6-dihydro-pyran-2-one], the inhibition at 50 µM is 12%.

The same experiment, now with this note: recombinant HCV polymerase; 30 minutes at 30° C.; concentration giving 50% inhibition of polymerase-directed transcription; read-out: IC50.
Usually IC50 stands for the point on the concentration scale where inhibition reaches its midpoint. In the case of `COC(=O)c1nnc(SC2=C(O)CC(CCc3ccc(OC(C)C)c(F)c3)(C3CCCC3)OC2=O)n1C` (centres unmarked) [C(10), 5-{6-Cyclopentyl-6-[2-(3-fluoro-4-isopropoxy-phenyl)-ethyl]-4-hydroxy-2-oxo-5,6-dihydro-2H-pyran-3-ylsulfanyl}-4-methyl-4H-[1,2,4]triazole-3-carboxylic acid methyl ester], the 50% inhibitory concentration (IC50) amounted to 16 nM.

Consider `CC(C)Oc1ccc(CCC2(C3CCCC3)CC(O)=C(Sc3ncccn3)C(=O)O2)cc1F` (centres unmarked) [C(11), 6-Cyclopentyl-6-[2-(3-fluoro-4-isopropoxy-phenyl)-ethyl]-4-hydroxy-3-(pyrimidin-2-ylsulfanyl)-5,6-dihydro-pyran-2-one], for which the IC50 was 190 nM. Take `CC(C)Oc1ccc(CCC2(C3CCCC3)CC(O)=C(Sc3nnc(O)n3C(C)C)C(=O)O2)cc1F` (centres unmarked) [C(12), 6-Cyclopentyl-6-[2-(3-fluoro-4-isopropoxy-phenyl)-ethyl]-4-hydroxy-3-(5-hydroxy-4-isopropyl-4H-[1,2,4]triazol-3-ylsulfanyl)-5,6-dihydro-pyran-2-one]: the IC50 turned out to be 82 nM. On the same count and under the same terms, the value for `Cc1cc(C)n2nc(SC3=C(O)CC(CCc4ccc(-c5c(C)noc5C)cc4)(C4CCCC4)OC3=O)nc2n1` (centres unmarked) [C(13), 6-Cyclopentyl-6-{2-[4-(3,5-dimethyl-isoxazol-4-yl)-phenyl]-ethyl}-3-(5,7-dimethyl-[1,2,4]triazolo[1,5-a]pyrimidin-2-ylsulfanyl)-4-hydroxy-5,6-dihydro-pyran-2-one] was 16 nM; that for `Cc1noc(C)c1-c1ccc(CCC2(C3CCCC3)CC(O)=C(Sc3nc4cc(Cl)ccc4n3C)C(=O)O2)cc1` (centres unmarked) [C(14), 3-(5-Chloro-1-methyl-1H-benzoimidazol-2-ylsulfanyl)-6-cyclopentyl-6-{2-[4-(3,5-dimethyl-isoxazol-4-yl)-phenyl]-ethyl}-4-hydroxy-5,6-dihydro-pyran-2-one] was 14 nM. As to `COc1ccc(CCC2(C3CCCC3)CC(O)=C(Sc3nnc(-c4ccccc4)[nH]3)C(=O)O2)cc1Cl` (centres unmarked) [C(22), 6-[2-(3-Chloro-4-methoxy-phenyl)-ethyl]-6-cyclopentyl-3-(5-phenyl-4H-[1,2,4]triazol-3-ylsulfanyl)-dihydro-pyran-2,4-dione], the 50% inhibitory concentration (IC50) is 68 nM.

For `COc1ccc(CCC2(C3CCCC3)CC(O)=C(Sc3nnc(-c4ccc(O)cc4)[nH]3)C(=O)O2)cc1Cl` (centres unmarked) [C(23), 6-[2-(3-Chloro-4-methoxy-phenyl)-ethyl]-6-cyclopentyl-3-[5-(4-hydroxy-phenyl)-4H-[1,2,4]triazol-3-ylsulfanyl]-dihydro-pyran-2,4-dione], the IC50 was 50 nM.

Turning to `CC(C)Oc1ccc(CCC2(C3CCCC3)CC(O)=C(Sc3nnc(-c4ccccc4)[nH]3)C(=O)O2)cc1F` (centres unmarked) [C(24), 6-Cyclopentyl-6-[2-(3-fluoro-4-isopropoxy-phenyl)-ethyl]-4-hydroxy-3-(5-phenyl-4H-[1,2,4]triazol-3-ylsulfanyl)-5,6-dihydro-pyran-2-one], the IC50 came to 51 nM. On the same count and under the same terms, the value for `CC(C)Oc1ccc(CCC2(C3CCCC3)CC(O)=C(Sc3nc4cc(Cl)ccc4n3C(C)C)C(=O)O2)cc1Cl` (centres unmarked) [C(25), 6-[2-(3-Chloro-4-isopropoxy-phenyl)-ethyl]-3-(5-chloro-1-isopropyl-1H-benzoimidazol-2-ylsulfanyl)-6-cyclopentyl-4-hydroxy-5,6-dihydro-pyran-2-one] was 20 nM; that for `CC(C)Oc1ccc(CCC2(C3CCCC3)CC(O)=C(Sc3nc4cc(Cl)ccc4[nH]3)C(=O)O2)cc1Cl` (centres unmarked) [C(26), 3-(5-Chloro-1H-benzoimidazol-2-ylsulfanyl)-6-[2-(3-chloro-4-isopropoxy-phenyl)-ethyl]-6-cyclopentyl-4-hydroxy-5,6-dihydro-pyran-2-one] was 130 nM; that for `O=C1OC(CCC2CCCCC2)(C2CCCC2)CC(O)=C1Sc1nnc(-c2ccncc2)[nH]1` (centres unmarked) [C(27), 6-(2-Cyclohexyl-ethyl)-6-cyclopentyl-4-hydroxy-3-(5-pyridin-4-yl-4H-[1,2,4]triazol-3-ylsulfanyl)-5,6-dihydro-pyran-2-one] was 2500 nM.

In the case of `O=C1OC(CCC2CCCC2)(C2CCCC2)CC(O)=C1Sc1nnc(-c2ccncc2)[nH]1` (centres unmarked) [C(28), 6-Cyclopentyl-6-(2-cyclopentyl-ethyl)-4-hydroxy-3-(5-pyridin-4-yl-4H-[1,2,4]triazol-3-ylsulfanyl)-5,6-dihydro-pyran-2-one], the half-maximal inhibitory concentration (IC50) stood at 8000 nM. Still for that read-out and setting: the value for `CC(C)n1c(SC2=C(O)CC(CCC3CCCC3)(C3CCCC3)OC2=O)nc2cc(Cl)ccc21` (centres unmarked) [C(29), 3-(5-Chloro-1-isopropyl-1H-benzoimidazol-2-ylsulfanyl)-6-cyclopentyl-6-(2-cyclopentyl-ethyl)-4-hydroxy-5,6-dihydro-pyran-2-one] was 9300 nM. Regarding `O=C1OC(CCCC2CCCCC2)(C2CCCC2)CC(O)=C1Sc1nnc(-c2ccncc2)[nH]1` (centres unmarked) [C(30), 6-(3-Cyclohexyl-propyl)-6-cyclopentyl-4-hydroxy-3-(5-pyridin-4-yl-4H-[1,2,4]triazol-3-ylsulfanyl)-5,6-dihydro-pyran-2-one], the 50% inhibitory concentration (IC50) worked out at 550 nM. As for `CC(C)n1c(SC2=C(O)CC(CCCC3CCCCC3)(C3CCCC3)OC2=O)nc2cc(Cl)ccc21` (centres unmarked) [C(31), 3-(5-Chloro-1-isopropyl-1H-benzoimidazol-2-ylsulfanyl)-6-(3-cyclohexyl-propyl)-6-cyclopentyl-4-hydroxy-5,6-dihydro-pyran-2-one], the IC50 worked out at 510 nM.

With `O=C1OC(CCCCC2CCCCC2)(C2CCCC2)CC(O)=C1Sc1nnc(-c2ccncc2)[nH]1` (centres unmarked) [C(32), 6-(4-Cyclohexyl-butyl)-6-cyclopentyl-4-hydroxy-3-(5-pyridin-4-yl-4H-[1,2,4]triazol-3-ylsulfanyl)-5,6-dihydro-pyran-2-one], the IC50 worked out at 270 nM. As to `COc1ccc(CCC2(C3CCCC3)CC(O)=C(Sc3nncn3C(C)(C)C)C(=O)O2)cc1Cl` (centres unmarked) [C(34), 3-[(4-tert-butyl-4H-1,2,4-triazol-3-yl)thio]-6-[2-(3-chloro-4-methoxyphenyl)ethyl]-6-cyclopentyl-4-hydroxy-5,6-dihydro-2H-pyran-2-one], the IC50 came to 53 nM. Same read-out and setting: the value for `CCn1cnnc1SC1=C(O)CC(CCc2ccc(OC)c(Cl)c2)(C2CCCC2)OC1=O` (centres unmarked) [C(35), 6-[2-(3-chloro-4-methoxyphenyl)ethyl]-6-cyclopentyl-3-[(4-ethyl-4H-1,2,4-triazol-3-yl)thio]-4-hydroxy-5,6-dihydro-2H-pyran-2-one] was 70 nM. In the case of `COc1ccc(CCC2(C3CCCC3)CC(O)=C(Sc3nncn3C(C)C)C(=O)O2)cc1Cl` (centres unmarked) [C(36), 6-[2-(3-chloro-4-methoxyphenyl)ethyl]-6-cyclopentyl-4-hydroxy-3-[(4-isopropyl-4H-1,2,4-triazol-3-yl)thio]-5,6-dihydro-2H-pyran-2-one], the IC50 was found to be 79 nM.

Regarding `COc1ccc(CCC2(C3CCCC3)CC(O)=C(Sc3nncn3-c3ccccc3)C(=O)O2)cc1Cl` (centres unmarked) [C(37), 6-[2-(3-chloro-4-methoxyphenyl)ethyl]-6-cyclopentyl-4-hydroxy-3-[(4-phenyl-4H-1,2,4-triazol-3-yl)thio]-5,6-dihydro-2H-pyran-2-one], the IC50 was 130 nM.

As to `COc1ccc(CCC2(C3CCCC3)CC(O)=C(Sc3nnnn3C)C(=O)O2)cc1Cl` (centres unmarked) [C(38), 6-[2-(3-chloro-4-methoxyphenyl)ethyl]-6-cyclopentyl-4-hydroxy-3-[(1-methyl-1H-tetrazol-5-yl)thio]-5,6-dihydro-2H-pyran-2-one], the IC50 turned out to be 280 nM. Same read-out and setting: the value for `CCn1nnnc1SC1=C(O)CC(CCc2ccc(OC)c(Cl)c2)(C2CCCC2)OC1=O` (centres unmarked) [C(39), 6-[2-(3-chloro-4-methoxyphenyl)ethyl]-6-cyclopentyl-3-[(1-ethyl-1H-tetrazol-5-yl)thio]-4-hydroxy-5,6-dihydro-2H-pyran-2-one] was 220 nM.
